Legend:
[1] = system: NIH3T3/EGFRWT cell-transplanted tumor
Description: Note that, “*” denotes t<0.05.

NIH3T3/EGFR vIII cells = assay: 3D cell culture step (environment without adhesion scaffold), proliferation of NIH3T3/EGFR vIII cells; format: cell-based, mouse
NIH3T3 cells = assay: 2D cell culture step (environment with adhesion scaffold), proliferation of NIH3T3 cells; format: cell-based; conditions: Mus musculus, 72 h; NIH3T3 cells, TC-treated plate, 3 days, […]-GLO; read-out: IC50 2D cell culture step
Description: Note that, as a negative control, the NIH3T3 cells at 2×10^3 cells/100 were seeded to the same plate in a volume of 100 μL per well and cultured at 37° C. in the presence of 5% CO2 for 3 days without the addition of the test substance.
Note that, Dulbecco's Modified Eagle Medium supplemented with 5% FBS was used for the culture.
A cell proliferation inhibition rate in the 2D cell culture step was calculated according to (Expression 2) below. Cell proliferation inhibition rate(%)=(1−D/E)×100 (Expression 2)
In the (Expression 2), D denotes the number of viable NIH3T3 cells when the test substance was added, and E denotes the number of viable NIH3T3 cells when the test substance was not added.

U87MG cells = assay: 3D cell culture step, EGFR vIII gene non-expressing brain tumor cells U87MG; format: cell-based; conditions: Test Example 3, U87MG cells
Description: The following 3 brain tumor cells were used as the EGFR vIII gene non-expressing cells. • U251 cells (available from ATCC) • U87MG cells (available from ATCC) • KS-1 cells (available from ATCC) <3D Cell Culture Step>
After the 3 days of culture, the number of viable cells was counted by […]-GLO (trademark) Luminescent Cell Viability Assay (available from Promega), which was a method for quantitating ATP in viable cells. A cell proliferation inhibition rate in the 3D cell culture step was calculated according to (Expression 3) below. Cell proliferation inhibition rate(%)=(1−X/Y)×100 (Expression 3)
In the (Expression 3), X denotes the number of viable cells when the test substance was added, and Y denotes the number of viable cells when the test substance was not added.

[2] = Solubility (remark in acute toxicity test); format: physicochemical
[3] = Acute toxicity test, oral administration; format: in vivo, ICR mice; conditions: orally once; for Organ weight Heart / Organ weight Kidney (Left) / Organ weight Kidney (Right) / Organ weight Liver / Organ weight Lung / Organ weight Spleen / Organ weight Thymus: two weeks after
Description: Two-weeks after the compounds represented by the Structural Formula (1) at the above concentrations were orally administered, the mice were dissected and organs thereof were weighed.
Two-weeks after the compounds represented by the Structural Formula (8) at the above concentrations were orally administered, the mice were dissected and organs thereof were weighed.

SMILES: Nc1ccc(Br)cc1-c1nc2ccccc2[nH]c1=O [Structural Formula (1), 3-(2-amino-5-bromophenyl)-2(1H)-quinoxalinone]
- tumor proliferation inhibiting activity ([1]; 30 mg/kg intraperitoneally once a day, day 1 to day 17): exhibited the tumor proliferation inhibiting activity
- tumor proliferation inhibiting activity compared with Gefitinib ([1]; 30 mg/kg intraperitoneally vs Gefitinib 200 mg/kg orally): comparable
- cell proliferation inhibiting activity compared with AG1478, Gefitinib and Erlotinib (NIH3T3/EGFR vIII cells; 3D cell culture step): more significant cell proliferation inhibiting activity
- IC50 (NIH3T3/EGFR vIII cells; Mus musculus, 72 h, NIH3T3/EGFR vIII cells, Ultra Low Attachment plate, 3 days, […]-GLO): 0.012 µM
- inhibiting activity against scaffold-independent proliferation capacity (NIH3T3/EGFR vIII cells; Test Example 3, NIH3T3/EGFR vIII cells): exhibited an inhibiting activity
- IC50 (NIH3T3 cells): > 10 µM
- inhibiting activity against scaffold-independent proliferation capacity (U87MG cells): did not exhibit an inhibiting activity
- solubility [2]: poor solubility
- Organ weight Heart ([3]; 0.098 mg/kg/0.2 mL): 124.0 mg
- Organ weight Kidney (Left) ([3]; 0.098 mg/kg/0.2 mL): 183.0 mg
- Organ weight Kidney (Right) ([3]; 0.098 mg/kg/0.2 mL): 191.0 mg
- Organ weight Liver ([3]; 0.098 mg/kg/0.2 mL): 1524.0 mg
- Organ weight Lung ([3]; 0.098 mg/kg/0.2 mL): 163.0 mg
- Organ weight Spleen ([3]; 0.098 mg/kg/0.2 mL): 132.0 mg
- Organ weight Heart ([3]; 6.25 mg/kg/0.2 mL): 122.0 mg
- Organ weight Lung ([3]; 6.25 mg/kg/0.2 mL): 169.0 mg
- Organ weight Thymus ([3]; 6.25 mg/kg/0.2 mL): 112.0 mg
- Organ weight Heart ([3]; 12.5 mg/kg/0.2 mL): 143.0 mg
- Organ weight Kidney (Left) ([3]; 12.5 mg/kg/0.2 mL): 177.0 mg
- Organ weight Kidney (Right) ([3]; 12.5 mg/kg/0.2 mL): 177.0 mg
- Organ weight Liver ([3]; 12.5 mg/kg/0.2 mL): 1327.0 mg
- Organ weight Lung ([3]; 12.5 mg/kg/0.2 mL): 191.0 mg
- Organ weight Spleen ([3]; 12.5 mg/kg/0.2 mL): 173.0 mg
- Organ weight Thymus ([3]; 12.5 mg/kg/0.2 mL): 99.0 mg
- Organ weight Heart ([3]; 25 mg/kg/0.2 mL): 116.0 mg
- Organ weight Kidney (Left) ([3]; 25 mg/kg/0.2 mL): 157.0 mg
- Organ weight Kidney (Right) ([3]; 25 mg/kg/0.2 mL): 169.0 mg
- Organ weight Liver ([3]; 25 mg/kg/0.2 mL): 1290.0 mg
- Organ weight Lung ([3]; 25 mg/kg/0.2 mL): 176.0 mg
- Organ weight Spleen ([3]; 25 mg/kg/0.2 mL): 100.0 mg
- Organ weight Thymus ([3]; 25 mg/kg/0.2 mL): 87.0 mg
- Organ weight Heart ([3]; 50 mg/kg/0.4 mL): 115.0 mg
- Organ weight Kidney (Left) ([3]; 50 mg/kg/0.4 mL): 150.0 mg
- Organ weight Kidney (Right) ([3]; 50 mg/kg/0.4 mL): 155.0 mg
- Organ weight Liver ([3]; 50 mg/kg/0.4 mL): 1403.0 mg
- Organ weight Lung ([3]; 50 mg/kg/0.4 mL): 166.0 mg
- Organ weight Spleen ([3]; 50 mg/kg/0.4 mL): 117.0 mg
- Organ weight Thymus ([3]; 50 mg/kg/0.4 mL): 95.0 mg
- toxicity ([3]; 0.098 to 50 mg/kg, observed 2 weeks): no significant toxicity

Source: US9969699B2, “Cancer cell growth inhibitor, anticancer agent, and method for screening same, as well as novel compound” (Microbial Chemistry Research Foundation, priority 2014, dated 2018)
